Test results reported in ChEMBL document CHEMBL6103559, “Marine actinomycetes-derived angucyclines and angucyclinones with biosynthesis and activity--past 10 years (2014-2023)” (Eur J Med Chem, 2025).
≈ marks a conversion by molar mass, not a printed value.

Assays:
[1] = system: PC-3; assay: Cytotoxicity against human PC-3 cells; format: functional, cell-based
[2] = system: Escherichia coli; assay: Antibacterial activity against Escherichia coli CMCC(B) 44102 assessed as reduction in microbial growth measured for 18 hrs; format: functional
[3] = system: Klebsiella pneumoniae; assay: Antibacterial activity against Klebsiella pneumoniae CMCC(B) 46117 assessed as reduction in microbial growth measured for 18 hrs; format: functional
[4] = system: Bacillus subtilis; assay: Antibacterial activity against Bacillus subtilis CMCC(B) 63501 assessed as reduction in microbial growth measured for 18 hrs; format: functional
[5] = system: Pseudomonas aeruginosa; assay: Antimicrobial activity against Pseudomonas aeruginosa CMCC(B) 10104 assessed as reduction in microbial growth measured for 18 hrs; format: functional
[6] = system: Staphylococcus aureus; assay: Antimicrobial activity against methicillin-resistant Staphylococcus aureus assessed as reduction in microbial growth measured for 18 hrs; format: functional
[7] = system: Jurkat; assay: Cytotoxicity against human Jurkat T cells; format: functional, cell-based
[8] = system: MDA-MB-231; assay: Cytotoxicity against human MDA-MB-231 cells; format: functional, cell-based
[9] = system: MDA-MB-468; assay: Cytotoxicity against human MDA-MB-468 cells; format: functional, cell-based
[10] = system: BT-549; assay: Cytotoxicity against human BT-549 cells; format: functional, cell-based
[11] = system: Staphylococcus aureus; assay: Antibacterial activity against methicillin-resistant Staphylococcus aureus assessed as reduction in microbial growth by CLSI based broth microdilution method; format: functional
[12] = system: Salmonella typhimurium; assay: Antibacterial activity against multi-drug resistant Salmonella Typhimurium CCARM 8250 assessed as inhibition of bacterial growth incubated for 18 hrs by microplate reader analysis; format: functional, Salmonella enterica subsp. enterica serovar Typhimurium; details: Salmonella enterica
[13] = system: Enterococcus faecium; assay: Antibacterial activity against multi-drug resistant Enterococcus faecium CCARM 5203 assessed as inhibition of bacterial growth incubated for 18 hrs by microplate reader analysis; format: functional
[14] = system: Enterococcus faecalis; assay: Antibacterial activity against multi-drug resistant Enterococcus faecalis CCARM 5172 assessed as inhibition of bacterial growth incubated for 18 hrs by microplate reader analysis; format: functional
[15] = system: Escherichia coli; assay: Antibacterial activity against multi-drug resistant Escherichia coli CCARM 1009 assessed as inhibition of bacterial growth incubated for 18 hrs by microplate reader analysis; format: functional
[16] = system: Staphylococcus aureus; assay: Antibacterial activity against multi-drug resistant Staphylococcus aureus CCARM 3090 assessed as inhibition of bacterial growth incubated for 18 hrs by microplate reader analysis; format: functional
[17] = system: Candida albicans; assay: Antifungal activity against Candida albicans assessed as reduction in […] growth measured for 12 hrs by broth micro-dilution method; format: functional
[18] = system: Staphylococcus aureus; assay: Antibacterial activity against Staphylococcus aureus ATCC 43300 assessed as reduction in bacterial growth measured for 12 hrs by broth micro-dilution method; format: functional
[19] = system: MDA-MB-231; assay: Growth inhibition of human MDA-MB-231 cells after 48 hrs by sulforhodamine B assay; format: functional
[20] = system: PC-3; assay: Growth inhibition of human PC-3 cells after 48 hrs by sulforhodamine B assay; format: functional
[21] = system: HCT-15; assay: Growth inhibition of human HCT-15 cells after 48 hrs by sulforhodamine B assay; format: functional
[22] = system: NCI-H23; assay: Growth inhibition of human NCI-H23 cells after 48 hrs by sulforhodamine B assay; format: functional
[23] = system: ACHN; assay: Growth inhibition of human ACHN cells after 48 hrs by sulforhodamine B assay; format: functional
[24] = system: NUGC-3; assay: Growth inhibition of human NUGC-3 cells after 48 hrs by sulforhodamine B assay; format: functional
[25] = system: A2780; assay: Cytotoxicity against human A2780 cells assessed as reduction in cell growth by SRB assay; format: functional, cell-based
[26] = system: PC-3; assay: Cytotoxicity against human PC-3 cells assessed as reduction in cell growth by SRB assay; format: functional, cell-based
[27] = system: H69AR; assay: Cytotoxicity against human NCI-H69AR cells assessed as reduction in cell growth by MTT assay; format: functional, cell-based
[28] = system: ASPC1; assay: Cytotoxicity against human ASPC1 cells assessed as reduction in cell growth by MTT assay; format: functional, cell-based
[29] = system: MDA-MB-231; assay: Cytotoxicity against human MDA-MB-231 cells assessed as reduction in cell growth by MTT assay; format: functional, cell-based
[30] = system: NCI-H69; assay: Cytotoxicity against human NCI-H69 cells assessed as reduction in cell growth by MTT assay; format: functional, cell-based
[31] = system: K562; assay: Cytotoxicity against human K562 cells assessed as reduction in cell growth by MTT assay; format: functional, cell-based
[32] = system: HepG2; assay: Cytotoxicity against human HepG2 cells assessed as reduction in cell viability incubated for 48 hrs by MTT assay; format: functional, cell-based; details: HepG2, 48 h
[33] = system: MDA-MB-231; assay: Cytotoxicity against human MDA-MB-231 cells assessed as reduction in cell viability incubated for 48 hrs by MTT assay; format: functional, cell-based; details: MDA-MB-231, 48 h
[34] = system: NCI-H460; assay: Cytotoxicity against human NCI-H460 cells assessed as reduction in cell viability incubated for 48 hrs by MTT assay; format: functional, cell-based; details: NCI-H460, 48 h
[35] = system: MDA-MB-435; assay: Cytotoxicity against human MDA-MB-435 cells assessed as reduction in cell viability incubated for 48 hrs by MTT assay; format: functional, cell-based; details: MDA-MB-435, 48 h
[36] = system: HCT-116; assay: Cytotoxicity against human HCT-116 cells assessed as reduction in cell viability incubated for 48 hrs by MTT assay; format: functional, cell-based; details: HCT-116, 48 h
[37] = system: MCF-10A; assay: Cytotoxicity against human MCF-10A cells assessed as reduction in cell viability incubated for 48 hrs by MTT assay; format: functional, cell-based
[38] = system: HCT-116; assay: Cytotoxicity against human HCT-116 cells by SRB assay; format: functional, cell-based
[39] = system: SK-HEP1; assay: Cytotoxicity against human SK-HEP1 cells by SRB assay; format: functional, cell-based
[40] = system: SNU-638; assay: Cytotoxicity against human SNU-638 cells by SRB assay; format: functional, cell-based
[41] = system: A549; assay: Cytotoxicity against human A549 cells by SRB assay; format: functional, cell-based
[42] = system: MDA-MB-231; assay: Cytotoxicity against human MDA-MB-231 cells by SRB assay; format: functional, cell-based
[43] = system: A549; assay: Cytotoxicity against human A549 cells assessed as reduction in cell growth incubated for 72 hrs by SRB assay; format: functional, cell-based; details: A549, 72 h
[44] = system: SF-268; assay: Cytotoxicity against human SF-268 cells assessed as reduction in cell growth incubated for 72 hrs by SRB assay; format: functional, cell-based; details: SF-268, 72 h
[45] = system: HepG2; assay: Cytotoxicity against human HepG2 cells assessed as reduction in cell growth incubated for 72 hrs by SRB assay; format: functional, cell-based; details: HepG2, 72 h
[46] = system: MCF7; assay: Cytotoxicity against human MCF7 cells assessed as reduction in cell growth incubated for 72 hrs by SRB assay; format: functional, cell-based; details: MCF7, 72 h

## C[C@@]12CC(=O)[C@@]3(O)[C@](O)(CC[C@H]4C(=O)c5c(O)cccc5[C@@H](O)[C@@]43O1)C2
[1]
  IC50: 1.38 µM

## CO[C@@H]1C[C@@H](O[C@H]2C=C(C)C[C@]3(O)[C@@H](OC(=O)O)[C@@H](O)C4=C(C(=O)c5ccc([C@H]6C[C@@H](O[C@H]7C[C@](C)(O)[C@H](O[C@H]8CC[C@H](OC(N)=O)[C@@H](C)O8)[C@@H](C)O7)[C@@H](O)[C@@H](C)O6)c(O)c5C4=O)[C@]23O)O[C@@H](C)[C@H]1O
[2]
  MIC: 16 µg/mL
[3]
  MIC: 16 µg/mL
[4]
  MIC: 8 µg/mL
[5]
  MIC: 16 µg/mL
[6]
  MIC: 16 µg/mL

## Cc1cc(O)c2cc3c(c(O)c2c1)C(=O)c1ccc([C@H]2C[C@@H](O)[C@H](O[C@H]4CC[C@H](OC5=CC(=O)[C@@H](C)OC5)[C@H](C)O4)[C@@H](C)O2)c(O)c1C3=O
[7]
  IC50: 3 µM

## CO[C@@H]1C[C@@H](O[C@H]2C=C(C)[C@@H](O)[C@]3(O)[C@@H](OC(=O)O)[C@@H](O)C4=C(C(=O)c5ccc([C@H]6C[C@@H](O[C@H]7C[C@](C)(O)[C@H](O[C@H]8CC[C@H](OC(N)=O)[C@@H](C)O8)[C@@H](C)O7)[C@@H](O)[C@@H](C)O6)c(O)c5C4=O)[C@]23O)O[C@@H](C)[C@H]1O
[2]
  MIC: 16 µg/mL
[3]
  MIC: 16 µg/mL
[4]
  MIC: 8 µg/mL
[5]
  MIC: 16 µg/mL
[6]
  MIC: 16 µg/mL

## CN[C@@H]1C[C@H](c2c(O)c3c(c4c(O)cc(C)cc24)C(=O)c2cccc(O)c2C3=O)O[C@H](C)[C@H]1O
[8]
  IC50: 0.6 µM
[9]
  IC50: 0.6 µM
[10]
  IC50: 0.6 µM

## CC(C)C1(O)CC(=O)c2c(cc(O)c3c2C(=O)c2cccc(O)c2C3=O)C1 (stereo not given)
[11]
  MIC: 3.12 µg/mL

## C[C@@H]1O[C@@H](O[C@H]2[C@H](O)C[C@H](c3ccc4c(c3O)C(=O)c3ccc(C[C@@](C)(O)CC(=O)O)c(O)c3C4=O)O[C@@H]2C)CC[C@@H]1O
[12]
  MIC: 3.12 µg/mL (≈ 5.19 µM)
[13]
  MIC: 3.12 µg/mL (≈ 5.19 µM)
[14]
  MIC: 3.12 µg/mL (≈ 5.19 µM)
[15]
  MIC: 3.12 µg/mL (≈ 5.19 µM)
[16]
  MIC: 3.12 µg/mL (≈ 5.19 µM)

## CC(=O)C[C@H](SCc1cc2cc(C)cc(O)c2c2c1C(=O)c1c(O)cccc1C2=O)C(=O)O
[17]
  MIC: 20 µM (≈ 9.29 µg/mL)
[18]
  MIC: 20 µM (≈ 9.29 µg/mL)

## CSC1=CC2=C(C(=O)c3ccc([C@H]4C[C@@H](O[C@H]5CC[C@H](O[C@H]6C[C@@H](O)[C@H](O)[C@@H](C)O6)[C@H](C)O5)[C@H](O)CO4)c(O)c3C2=O)[C@@]2(O)C(=O)C[C@](C)(O)C[C@@]12O
[19]
  GI50: 0.01 µM
[20]
  GI50: 0.01 µM
[21]
  GI50: 0.01 µM
[22]
  GI50: 0.01 µM
[23]
  GI50: 0.01 µM
[24]
  GI50: 0.01 µM

## CC(C)C1(O)CC(=O)c2c(cc(O)c3c2C(=O)c2cccc(O)c2C3=O)C1=O (stereo not given)
[11]
  MIC: 3.12 µg/mL

## CC(=O)N[C@@H](CSc1cc2cc(C)cc(O)c2c2c1C(=O)c1c(O)cccc1C2=O)C(=O)O
[17]
  MIC: 20 µM (≈ 9.31 µg/mL)
[18]
  MIC: 20 µM (≈ 9.31 µg/mL)
[25]
  IC50: 10.2 µM
[26]
  IC50: 19.4 µM

## CC1=CC(=O)[C@]2(O)[C@](O)(CC[C@@]34O[C@@]23C(=O)c2cccc(O)c2C4=O)C1
[27]
  IC50: 0.32 µM
[28]
  IC50: 0.32 µM
[29]
  IC50: 0.32 µM
[30]
  IC50: 0.32 µM
[31]
  IC50: 0.32 µM

## C[C@@H]1O[C@@H](O[C@H]2CC[C@H](O[C@H]3[C@H](O)C[C@H](c4ccc5c(c4O)C(=O)c4ccc6c(c4C5=O)C(=O)C[C@](C)(O)C6)O[C@@H]3C)O[C@H]2C)CCC1=O
[32]
  IC50: 2.4 µM
[33]
  IC50: 2.4 µM
[34]
  IC50: 2.4 µM
[35]
  IC50: 2.4 µM
[36]
  IC50: 2.4 µM
[37]
  IC50: 2.4 µM

## COc1cccc2c1C(=O)O[C@H]2c1c(O)ccc2c1C(=O)C[C@@H](C)[C@@H]2O
[38]
  IC50: 6.7 µM
[39]
  IC50: 6.7 µM
[40]
  IC50: 6.7 µM
[41]
  IC50: 6.7 µM
[42]
  IC50: 6.7 µM

## Cc1cc(O)c2c(c1)C1c3c-2c(O)c2cccc(O)c2c3OC(=O)C1c1c[nH]c2ccccc12 (stereo not given)
[43]
  IC50: 7 µM
[44]
  IC50: 7 µM
[45]
  IC50: 7 µM
[46]
  IC50: 7 µM

## CC(C)c1cc(=O)c2c(cc(O)c3c(=O)c4c(O)cccc4c(=O)c32)c1=O
[11]
  MIC: 3.12 µg/mL
